Reference: patent publication US11147805B2, “Cannabinoid receptor agonists and serine hydrolase enzyme inhibitor based anxiolytic therapeutic product” (Medipure Pharmaceuticals Inc., priority 2019, dated 2021)

Key:
[1] = system: human subjects; settings: human subjects submitted to SPST; cited from earlier work
[2] = system: healthy volunteers; settings: chronic administration, even large acute doses of 700 mg/day; cited from earlier work
[3] = system: Swiss albino mice; assay: Dose-response study: locomotor activity in the open field; assay type: in vivo; settings: 7 days repeated, tested 8th day, tracked 60 min, vs vehicle
Procedure: The effect of CBD, KML29, and JZL184 on locomotor activity in the open field experiment was evaluated using Swiss albino mice.
A total of 88 male Swiss albino mice (˜30-45 g; 7-9 weeks old) were selected and body weights were recorded. Animals were administered respective treatments (n=8) as per the group allocation repeatedly for 7 days. On the day of testing (8th day), animals were brought to the laboratory 1 h prior to acclimatize to the laboratory conditions. Mice were habituated to the arenas for a period of 30 min. Respective treatments were intraperitoneally administered (vehicle (10 mL/kg) or Diazepam (1 mg/kg) or CBD (1, 10 and 100 mg/kg) or KML29 (3, 10 and 30 mg/kg) or JZL184 (3, 10 and 30 mg/kg)) immediately post habituation. After treatment animals were placed in the open field and distance traveled by mice was tracked for 60 min. Data obtained was analyzed by Student's ‘t’-test or Two-way repeated measures ANOVA followed by Bonferroni's posthoc tests by using the Graph pad prism software package (Version 7.0) and a p-value below 0.05 was considered as significant.

[4] = system: Swiss albino mice; assay: Anxiolytic effects of formulation: locomotor activity in open field, combinations vs diazepam; assay type: in vivo; settings: 1 mg/kg, i.p.; tested 8th day, tracked 60 min; vs vehicle
Procedure: The effect of CBD, KML29, and JZL184 on locomotor activity in open field was evaluated using Swiss albino mice and compared with diazepam.
A total of 48 male Swiss albino mice (˜30-45 g; 7-9 weeks old) were selected and body weights were recorded. Animals were brought to the laboratory 1 h prior to acclimatize to the laboratory conditions. The open field is a black colored arena of 51×51×51 cm enclosed by black plastic walls of same dimensions. Animals were given respective intraperitoneal treatments as per the group allocation (n=8) repeatedly for 7 days. On the day of testing (8th day), mice were habituated to the arenas for a period of 30 min. […] Data obtained was analyzed by Student's ‘t’-test or Two-way repeated measures ANOVA followed by Bonferroni's posthoc tests by using the GraphPad prism software package (Version 7.02) and p-value below 0.05 was considered as significant.
Preparation of formulations: Diazepam was dissolved with sufficient volume of 5% pharmasolve and 95% of 30% w/v captisol to get the concentration of 0.10 mg/mL and was intended for intraperitoneal administration of 1 mg/kg dose at 10 mL/kg dose volume. CBD was dissolved in a calculated volume of DMSO to get the concentration of 20 mg/mL (Stock solution). […] KML29 was dissolved in a calculated volume of DMSO to get the concentration of 50 mg/mL (Stock solution). […]

C=C(C)[C@@H]1CCC(C)=C[C@H]1c1c(O)cc(CCCCC)cc1O [CBD, cannabidiol]
anxiolytic effect [1]: anxiolytic effects | toxicity or serious side effects [2]: No signs of toxicity or serious side effects | locomotion (distance traveled in open field) ([3]; 100 mg/kg, i.p.): significantly decreased the locomotion

CN1C(=O)CN=C(c2ccccc2)c2cc(Cl)ccc21 [Diazepam, diazepam]
locomotion (distance traveled in open field) [4]: significantly decreased the locomotion | locomotion (distance traveled in open field) ([3]; 1 mg/kg, i.p.): significantly decreased the locomotion

O=C(Oc1ccc([N+](=O)[O-])cc1)N1CCC(C(O)(c2ccc3c(c2)OCO3)c2ccc3c(c2)OCO3)CC1 [JZL184, 4-nitrophenyl-4-[bis(1,3-benzodioxol-5yl)(hydroxy)methyl]piperidine-1-carboxylate]
locomotion (distance traveled in open field) ([3]; 3, 10 and 30 mg/kg i.p.): decreased the locomotion in a dose-dependent manner but the effect did not reach statistical significance

O=C(N1CCC(=C2c3ccc(Cl)cc3CCc3cccnc32)CC1)n1cncn1 [KML29, [4-(8-Chloro-5,6-dihydro-11H-benzo[5,6]cyclohepta[1,2-b]pyridin-11-ylidene)-1-piperidinyl](1H-1,2,4-triazol-1-yl)methanone]
locomotion (distance traveled in open field) ([3]; 30 mg/kg, i.p.): decreased the locomotion and attained significance
